# Experimental data as given in US20080280943A1, “METHODS AND PACKAGES TO ENHANCE SAFETY WHEN USING IMIQUIMOD TO TREAT CHILDREN DIAGNOSED WITH SKIN DISORDERS” (priority 2007, published 2008).
# Columns and labels:
# [1] = Systemic absorption of imiquimod across affected skin of 22 subjects with extensive MC (serum levels, hematology); assay type: in vivo, human (subjects aged 2 to 12 years)
# Procedure: Systemic absorption of imiquimod across the affected skin of 22 subjects aged 2 to 12 years with extensive MC involving at least 10% of the total body surface area is observed after single and multiple doses at a dosing frequency of 3 applications per week for 4 weeks. The investigator determines the dose applied, i.e., either 1, 2 or 3 packets per dose, based on the size of the treatment area and the subject's weight. […] Children aged 2-5 years receive doses of 12.5 mg (one packet) or 25 mg (two packets) of imiquimod and have median multiple-dose peak serum drug levels of approximately 0.2 or 0.5 ng/ml, respectively. Children aged 6-12 years receive doses of 12.5 mg, 25 mg, or 37.5 mg (three packets) and have median multiple dose serum drug levels of approximately 0.1, 0.15, or 0.3 ng/ml, respectively. Among the 20 subjects with evaluable laboratory assessments, the median WBC count decreases by 1.4*10^9/L and the median absolute neutrophil count decreases by 1.42*10^9/L.
# [2] = system: molluscum contagiosum (MC) lesions; assay: Study 1: randomized, vehicle-controlled, double-blind trial in pediatric subjects with molluscum contagiosum, efficacy; assay type: in vivo, human (pediatric subjects)
# Procedure: Aldara® Cream, commercially available via prescription and manufactured by 3M Health Care Limited, Loughborough LE11 1EP England, and distributed by Graceway Pharmaceuticals, LLC, Bristol, Tenn. 37620, is evaluated in two randomized, vehicle-controlled, double-blind trials involving 702 pediatric subjects with molluscum contagiosum (MC) (470 are exposed to Aldara; median age 5 years, range 2-12 years). Subjects apply Aldara® Cream or vehicle 3 times weekly for up to 16 weeks. Complete clearance (no MC lesions) is assessed at Week 18. […] Similar to the studies conducted in adults, the most frequently reported adverse reaction from 2 studies in children with molluscum contagiosum is application site reaction. Adverse events which occur more frequently in Aldara®-treated subjects as compared with vehicle-treated subjects generally resemble those seen in studies in indications approved for adults and also included otitis media (5% Aldara vs. 3% vehicle) and conjunctivitis (3% Aldara® vs. 2% vehicle). Erythema is the most frequently reported local skin reaction. The severe local skin reactions that are reported by Aidara®-treated subjects in the pediatric studies include erythema (28%), edema (8%), scabbing/crusting (5%), flaking/scaling (5%), erosion (2%) and weeping/exudate (2%).
# (§1) More particularly, the objective is to evaluate the efficacy of imiquimod cream, 5% (imiquimod) for the treatment of molluscum contagiosum (MC) lesions in pediatric subjects when the cream was applied 3 times per week (3×/wk) for up to 16 weeks. The efficacy of imiquimod is evaluated by assessing MC lesion clearance. The primary efficacy parameter is complete clearance of all MC lesions (complete clinical resolution) from treatment initiation to the week 18/efficacy visit. Secondary efficacy parameters include partial clearance, defined as ≧50% reduction from the baseline lesion count, and the change in total lesion count. Time to complete clearance is also compared between treatment groups. The secondary objective is to evaluate the safety of imiquimod. Safety assessments are conducted throughout the study. Safety was assessed through incidence and severity of adverse events (AEs); local skin reactions (LSRs) of erythema, edema, erosion/ulceration, weeping/exudates, scabbing/crusting, and flaking/scaling/dryness; skin quality assessments; vital signs measurements; general physical examinations; hematology laboratory tests; and concomitant medication use.
# This is a randomized, vehicle-controlled, double-blind, parallel group, study that is conducted in children aged 2 to 12 years of age who had ≧2 clinically verified MC lesions. Enrollment is monitored to ensure at least 50% of subjects had at least 5 MC lesions, at least 50% of subjects are under 6 years of age, and a sufficient number of subjects enrolled with periocular lesions. Subjects are randomized 2:1 (imiquimod: vehicle) and apply study cream 3×/wk for up to 16 weeks (or until complete resolution of all MC lesions) to all target MC lesions. Subjects who weigh <25 kg apply up to 2 sachets of study cream, while subjects who weigh ≧25 kg apply up to 3 sachets. At the screening/treatment initiation visit, MC lesions and application area locations are recorded on a body diagram. […] At each study visit, MC lesions are counted and recorded, and safety procedures are performed. […]
# [3] = Safety assessment in the vehicle-controlled MC study (N=323); assay type: in vivo, human (children aged 2 to 12 years)
# Procedure: as §1
# This is a randomized, vehicle-controlled, double-blind, parallel group, study that is conducted in children aged 2 to 12 years of age who had ≧2 clinically verified MC lesions. Enrollment is monitored to ensure at least 50% of subjects had at least 5 MC lesions, at least 50% of subjects are under 6 years of age, and a sufficient number of subjects enrolled with periocular lesions. Subjects are randomized 2:1 (imiquimod: vehicle) and apply study cream 3×/wk for up to 16 weeks (or until complete resolution of all MC lesions) to all target MC lesions. […] At the screening/treatment initiation visit, MC lesions and application area locations are recorded on a body diagram. […] At each study visit, MC lesions are counted and recorded, and safety procedures are performed. […] MC lesions are treated 3×/wk for up to 16 weeks, or until determined that all MC lesions are cleared. […]
# [4] = 20 subjects with evaluable laboratory assessments
compound,measurement,setting,value
"CC(C)Cn1cnc2c(N)nc3ccccc3c21 [imiquimod, 1-isobutyl-1H-imidazo[4,5-c]-quinolin-4-amine]",decrease in median WBC count,[1]; [4],1.4e+09 L⁻¹
same,decrease in median absolute neutrophil count,[1]; [4],1.42e+09 L⁻¹
same,median multiple-dose peak serum drug level,"[1]; children aged 2-5 years, 12.5 mg (one packet)",approximately 0.2 ng/ml
same,peak serum imiquimod concentrations following both single and multiple doses,"[1]; children, topical imiquimod (summary statement)",< 2 ng/mL
same,Cmax,"[1]; human, in vivo, 25 mg, single person, 2 packets of study drug per dose, read-out: Cmax after multiple dosing",9.66 ng/mL
same,median WBC count decreased by,[1]; summary statement,about 1.4 *109/L
same,median absolute neutrophil count decreased by,[1]; summary statement,about 1.42 *109/L
same,partial clearance rate (≧50% reduction from baseline lesion count) at week 18,"[2]; ITT, 108/217, vehicle 45.3%, p=0.4416",49.8%
same,complete clearance rate (no MC lesions) at Week 18,"[2]; Study 1, ITT, 52/217, cream applied 3 times weekly for up to 16 weeks, vehicle 26% (28/106)",24.0%
same,efficacy versus vehicle cream with respect to complete and partial clearance of MC lesions,[2]; dosed 3×/wk for up to 16 weeks,not statistically significantly more effective than vehicle cream
same,distribution in time to complete clearance versus vehicle,"[2]; generalized Wilcoxon Test, p=0.7830",not significantly different
same,median percent reduction in MC lesions at week 18,[2]; vehicle 37.3%,48.1%
same,overall safety conclusion,"[3]; children ages 2 to 12 with MC, dosed 3×/wk for up to 16 weeks",safe
same,subjects discontinued from the treatment period due to AEs,"[3]; none severe in intensity, vehicle 1",2 subjects
same,subjects reporting at least 1 AE considered possibly or probably related to study drug,"[3]; vehicle 19.8%, p=0.013",33.6%
